Measured values as given in patent US6046228A, “Anti-viral pharmaceutical compositions containing saturated 1,2-dithiaheterocyclic compounds and uses thereof” (priority 1999, dated 2000).

Experiments:
HIV-1IIIB [1] = assay: XTT cytopathicity assay, HIV-1IIIB; format: cell-based
Method: (§1) Initial anti-HIV screening was performed with CEM-SS cells and HIV-1RFusing the XTT cytoprotection assay as previously described (Weislow et al., J. National Cancer Inst. 81: 577-586, (1989)). HIV-1 isolates included common laboratory stains (RF, IIIB and MN), as well as a panel of HIV-1 clinical isolates (Cushman et al., J. Med. Chem. 37: 3040-3050, (1994)). The pyridone-resistant HIV-1A17 isolate (Nunberg et al., J. Virol., 65: 4887-4892 (1991)) was obtained from Emilio Emini at Merck Sharpe and Dohme Laboratories. Phytohemagglutinin-stimulated human peripheral blood lymphocytes (PBLs) and fresh monocyte-macrophage (Mono/MF) cultures were prepared and utilized in antiviral assays as previously described (Rice et al., Proc. Nat'l. Academy Science, USA 90: 9721-9724, (1993)); (Cushman et al., J. Med. Chem. 37: 3040-3050, (1994)). EC50 values for these cultures indicate the drug concentration that provided a 50% reduction in viral p24 production. […] The compounds can be synthesized according to the teachings of Singh et al., Sulfur Letters 8: 107-114, (1988). The 4,5-cis-dihydroxy(1,1-dioxy-1,2,-dithiohexane) compound (NSC 624151) has been abbreviated as 624151 for convenience. MT-2, MT-4, U1, HeLa-CD4-LTR-β-gal and 174xCEM cells were obtained from the AIDS Research and Reference Program (National Institute of Allergy and Infectious Disease, National Institutes of Health, Bethesda, Md. USA), as were the HIV-2MS and the AZT-resistant HIV-1G910-6 isolates.
^a Anti-HIV studies utilizing lymphocytederived cell lines were
performed using the XTT cytopathicity assay, while antiviral assays

HIV-1NL4-3 = assay: XTT cytopathicity assay, NL4-3 without RT mutation; format: cell-based; details: Human immunodeficiency virus 1, NL43; MT-2, NL4-3, RT mutation None
Method: as §1, with “MT-2, MT-4, U1, HeLa-CD4-LTR-β-gal and 174xCEM cells were obtained from the AIDS Research and Reference Program (National Institute of Allergy and Infectious Disease, National Institutes of Health, Bethesda, Md. USA), as were the HIV-2MS and the AZT-resistant HIV-1G910-6 isolates.” left out

HIV-1, HIV-2 and SIV = assay: range of antiviral action studies; format: cell-based; details: in words
Method: as §1, with “MT-2, MT-4, U1, HeLa-CD4-LTR-β-gal and 174xCEM cells were obtained from the AIDS Research and Reference Program (National Institute of Allergy and Infectious Disease, National Institutes of Health, Bethesda, Md. USA), as were the HIV-2MS and the AZT-resistant HIV-1G910-6 isolates.” left out

HIV-1IIIB [2] = assay: combination antiviral XTT assay, CEM-SS cells, method of Prichard and Shipman; format: cell-based; details: for synergy volume: 95% confidence level
Method: Analysis of drug combinations was performed utilizing the XTT assay described above, with statistical evaluations performed according to the method of Prichard and Shipman (Antiviral Res. 14: 181-206, (1990)). Combination antiviral XTT assays were performed with CEM-SS cells utilizing HIV-1IIIB as previously described (Buckheit et al., Antimicrobial Agents and Chemotherapy 39: 2718-2727, (1995)). The standard anti-HIV assay was altered for combination analysis by increasing the multiplicity of infection 3-fold, allowing greater statistical consistency in these assays.
The synergy volumes for the combinatorial anti-HIV activities calculated at the 95% confidence level were 37, 80, 44, 55 and 16 μM^2, respectively, for each combination. Synergy volumes that range from […] represent additivity and volumes>50% represent synergistic responses. […] Thus, it is anticipated that the present dithiane dioxide compounds can be used in pharmaceutical compositions further including other antiviral agents.

gp120-CD4 = target: T1, gp120-CD4 (UniProt P01730+P03375); assay: gp120-CD4 binding, antigen capture ELISA; set-up: species or system HIV-1
T1 construct: purchased
Method: Binding of HIV-1RF to PBLs was measured by a p24-based assay (Rice, et al., Proc. Nat'l. Academy of Science USA 90: 9721-9724, (1993)). Briefly, 5×10^5 PBLs were incubated with a concentrated stock of virus for 30 min. at 37° C. in the absence or presence of various concentrations of 624151, the unbound virus was washed away, and the cell-associated virus was solubilized in 1% Triton X-100, 1% BSA and analyzed by the p24 antigen capture assay as previously described. The binding of gp120to CD4 was analyzed using an antigen capture ELISA. All steps of the assay were carried out according to the manufacturer's protocols.
^.dagger. Attachment of HIV1 to fresh human PBLs, binding of gp120 to
CD4, and the effects of compounds on HIV1 RT and protease were quantitate

## O=S1(=O)C[C@H](O)[C@H](O)CS1 (relative stereo) [NSC 624151, cis-1,1-dioxo[1,2]dithiane-4,5-diol]
HIV-1IIIB [1]; Human immunodeficiency virus 1, AA5(B, EBV+), HIV-1IIIB
  EC50: 2.6e-05 M
HIV-1IIIB [1]; Human immunodeficiency virus 1, CEM-SS, CEM-SS (T), HIV-1IIIB, cell type panel
  EC50: 6.1e-06 M
HIV-1IIIB [1]; Human immunodeficiency virus 1, H9(T), HIV-1IIIB
  EC50: 1.3e-05 M
HIV-1IIIB [1]; Human immunodeficiency virus 1, MT-2(T), HIV-1IIIB
  EC50: 1.88e-05 M
HIV-1IIIB [1]; Human immunodeficiency virus 1, U-937, U937(M), HIV-1IIIB
  EC50: 3.2e-06 M
HIV-1IIIB [1]; Human immunodeficiency virus 1, CEM-SS, IIIB, Laboratory HIV-1
  EC50: 2.08e-05 M
HIV-1IIIB [1]; in words
  inhibition of infection by HIV-1IIIB in all cellular phenotypes tested: inhibited by 624151 in all cellular phenotypes tested
HIV-1NL4-3
  EC50: 16.6 µM
HIV-1, HIV-2 and SIV; RF, IIIB, SK1, MN, AZT-, nevirapine-, pyridinone-, NNRTI-resistant strains
  inhibition of replication of laboratory and drug-resistant HIV-1 strains: effectively inhibited replication
HIV-1, HIV-2 and SIV
  activity against RT mutants, clinical strains, clades, HIV-2 and SIV: active against
HIV-1IIIB [2]; AZT, ddC, 3TC, Costatolide or KNI-272, in words
  combination response with other antiviral agents: additive to slightly synergistic response in combination with other antiviral agents, but was not antagonistic with any agents tested
HIV-1IIIB [2]; in combination with 3TC
  synergy volume: 44 μM^2
HIV-1IIIB [2]; in combination with AZT
  synergy volume: 37 μM^2
HIV-1IIIB [2]; in combination with Costatolide
  synergy volume: 55 μM^2
HIV-1IIIB [2]; in combination with KNI-272 protease inhibitor
  synergy volume: 16 μM^2
HIV-1IIIB [2]; in combination with ddC
  synergy volume: 80 μM^2
gp120-CD4; in words
  inhibition of gp120-CD4 interaction: did not inhibit
gp120-CD4; read-out: gp120-CD4 ID50
  IC50: > 100 µM
